BindingDB's records for doi:10.1016/j.bmcl.2007.11.087 (Bristol-Myers Squibb, 2008)

Test: Antagonist activity at human CCR3 receptor assessed as inhibition of chemotaxis in eosinophil

Which IC50 does the source give for `CCc1cc(NC(=O)N[C@H](C)[C@@H](O)CN(C)CCCc2ccc(F)cc2)cc(-c2nnnn2C)c1` [1-(3-ethyl-5-(1-methyl-1H-tetrazol-5-yl)phenyl)-3-((2R,3S)-4-((3-(4-fluorophenyl)propyl)(methyl)amino)-3-hydroxybutan-2-yl)urea] here?
Its IC50 is 2600 pM.

For `C[C@@H](NC(=O)Nc1cccc(-c2nnnn2C)c1)[C@@H](O)CN(C)[C@@H](C)[C@@H](O)c1ccccc1` [1-((2R,3S)-3-hydroxy-4-(((1S,2S)-1-hydroxy-1-phenylpropan-2-yl)(methyl)amino)butan-2-yl)-3-(3-(1-methyl-1H-tetrazol-5-yl)phenyl)urea], which IC50 is on record?
Its IC50 is 22000 pM.

Which IC50 does the source give for `CCc1cc(NC(=O)N[C@H](C)[C@@H](O)CN(CCCc2ccc(F)cc2)CC2CC2)cc(-c2nnnn2C)c1` [1-((2R,3S)-4-((cyclopropylmethyl)(3-(4-fluorophenyl)propyl)amino)-3-hydroxybutan-2-yl)-3-(3-ethyl-5-(1-methyl-1H-tetrazol-5-yl)phenyl)urea] here?
The IC50 was 5 pM.

For `CCc1cc(NC(=O)N[C@H](C)[C@@H](O)CN(CC)CCCc2ccc(F)cc2)cc(-c2nnnn2C)c1` [1-((2R,3S)-4-(ethyl(3-(4-fluorophenyl)propyl)amino)-3-hydroxybutan-2-yl)-3-(3-ethyl-5-(1-methyl-1H-tetrazol-5-yl)phenyl)urea], which IC50 is on record?
The IC50 was 4 pM.

With `C[C@@H](NC(=O)Nc1cccc(-c2nnnn2C)c1)[C@@H](O)CN1CCC[C@@H](Cc2ccc(F)cc2)C1` [1-{(1R,2S)-3-[(S)-3-(4-Fluoro-benzyl)-piperidin-1-yl]-2-hydroxy-1-methyl-propyl}-3-[3-(1-methyl-1H-tetrazol-5-yl)-phenyl]-urea] as the molecule, how does the IC50 read?
Its IC50 is 38 pM.
